Laboratory results taken from patent US20230212202A1, “TREATMENT OF MGMT DEFICIENT CANCER WITH 2-FLUOROETHYL-SUBSTITUTED NITROSOUREAS AND OTHER COMPOUNDS” (YALE UNIVERSITY, priority 2021, published 2023).
Several values for one entry are separate records, joined by “and”; a condition that tells them apart may be missing. Equal entries are not always repeated. Where two headings read alike, the source gives them in different places.

How the values were obtained:
[1] = test system: LN229 human brain glioblastoma cells MGMT- MMR-; test: Anticancer activity towards LN229 cells (Example 15); format: cell-based; settings: read-out: MGMT -MMR-Activity
Protocol: (§1) LN229 quad cells were maintained in Dulbecco’s Modified Eagle Medium (DMEM) supplemented with 10% fetal bovine serum. Cells were plated into sterile black with glass bottom 384-well plates (Cellvis) at a concentration of 1,000 cells/well (20 µL total volume) using a MultiDrop (Thermo Fisher). Then, assay plates were centrifuged at 300 rpm for 2 seconds and incubated overnight in a 37° C. 5% CO2 incubator. Compounds were prepared as 100 mM stocks in DMSO and stored protected from light at -20′C until use. Prior to compound addition, the stock solutions of compound were diluted two-fold serially in DMSO from 100 mM down to 0.05 mM in a 384-well Source plate. Vehicle control wells containing DMSO and positive control wells containing 10 mM bortezomib were also added to the Source plate. An aliquot in the amount of 40 nL of compound stock solution or DMSO vehicle was transferred from the source plate to the cell assay plate using an Echo Acoustic dispense (Beckman). Three replicate dilution curves of each compound were run on each assay plate. An aliquot in the amount of 120 nL of a 10 mM bortezomib solution was transferred to the positive control wells resulting in a final concentration of 60 µM. The final concentration of compounds ranged from 200 µM to 0.1 µM (12-point, 2-fold dilution dose response curve), and the final DMSO concentration was 0.2%.
(§2) Assay plates were centrifuged at 500 rpm for 2 seconds and incubated for 120 hours at 37° C. in a humidified 5% CO2 incubator. Following incubation, cells were fixed with 4% paraformaldehyde and stained with DAPI for nuclei visualization. The images were acquired on the InCell 2200 high content imager (GE, now […]), and quantified using InCell Analyzer image analysis software. Z prime factor, signal-to-background and coefficient of variation were calculated for each assays plate using mean and standard deviation values of the negative (vehicle) and positive (bortezomib) control wells to ensure assay robustness. Raw cell count data for test compounds was normalized to percent viability relative to the DMSO vehicle control. Data was plotted in GraphPad Prism using a variable slope 4-parameter fit.

[2] = test system: LN229 human brain glioblastoma cells MGMT+ MMR-; test: as above; format: cell-based; settings: read-out: MGMT+ MMR -Activity
Protocol: as §1, §2

[3] = test system: LN229 human brain glioblastoma cells MGMT+ MMR+; test: as above; format: cell-based; settings: read-out: MGMT+ MMR+ Activity
Protocol: as §1, §2

[4] = test system: LN229 human brain glioblastoma cells MGMT- MMR+; test: as above; format: cell-based; settings: read-out: MGMT -MMR + Activity
Protocol: as §1, §2

LN229 MGMT-/MMR- cells [5] = test: Short-term cell viability assay; format: cell-based, human; settings: LN229 MGMT-/MMR- cells
[6] = test system: LN229 MGMT+/-, MMR+/- cells; test: Short-term cell viability assay, four isogenic LN229 glioblastoma cell lines; format: cell-based, human
[7] = 37° C., pH 7.4; cited from earlier work
[8] = test system: LN229 MGMT+/-, MMR+/- cells; test: Clonogenic survival assay; format: cell-based, human
Protocol: Clonogenic Cell Survival Assay. Cells were trypsinized, washed, counted, and diluted in a medium containing various concentrations of drug. They were then immediately seeded in six-well plates in triplicate at three-fold dilutions, ranging from 9000 to 37 cells per well. Depending on colony size, these plates were kept in the incubator for 10 to 14 days. After incubation, colonies were washed in phosphate-buffered saline (PBS), stained with crystal violet, counted, and quantified.

[9] = test system: PD20 cells, FANCD2-/- or +FANCD2; test: Short-term viability assay; format: cell-based, human; settings: PD20 FANCD2-/- vs +FANCD2
[10] = test system: PEO4 (BRCA2+) and PEO1 (BRCA2-/-) cells; test: Short-term viability assay with or without O6BG; format: cell-based, human; settings: for therapeutic index (TI): PEO1/4 model; for sensitivity of BRCA2-/- cells: PEO1/PEO4, ±O6BG
LN229 MGMT-/MMR+ cells = test: IR alkaline comet assay; format: cell-based, human
[11] = test system: DLD1 BRCA2+/- and BRCA2-/- cells; test: Short-term viability assay with or without O6BG; format: cell-based, human; settings: for sensitivity of BRCA2-/- cells: DLD1, ±O6BG; for therapeutic index (TI), ratio of IC50 values in MGMT+/BRCA2+ cells compared to MGMT-/BRCA2- cells: DLD1 isogenic model
[12] = test system: linearized pUC19 plasmid DNA; test: Melting temperature assay; format: biochemical; settings: 100 or 500 µM, 3 h
LN229 MGMT-/MMR- cells [13] = test: IR alkaline comet assay; format: cell-based, human; settings: 200 µM, 2-24 h
[14] = test system: LN229 MGMT-/MMR- flank tumors; test: Xenograft flank tumor model; format: in vivo, mouse; settings: 5 mg/kg MWF × 3 weeks
[15] = test system: HCT116 MLH1-/- cells or HCT116 +Chr3 cells; test: Short-term viability assay with or without O6BG; format: cell-based, human
Excerpt: (§3) Short-term Cell Viability Assay.

[16] = test system: DLD1 MSH6-deficient cells; test: Short-term viability assay with or without O6BG; format: cell-based, human; settings: with or without O6BG-induced MGMT depletion
Excerpt: as §3

[17] = Homo sapiens, LN-229, 120 hours

O=NN(CCF)C(=O)NCCCl showed an IC50 ([1]; Homo sapiens, LN-229, 120 h) of under 50 µM, an IC50 ([2]; Homo sapiens, LN-229, 120 h) of over 90 µM and an IC50 ([3]; Homo sapiens, LN-229, 120 h) of over 90 µM. For the same compound, the IC50 ([4]; Homo sapiens, LN-229, 120 h) was 50 to 90 µM.
Work on O=NN(CCF)C(=O)NC1CCCCC1 yielded an IC50 [1, 17] of under 50 µM, an IC50 [2, 17] of 50 to 90 µM and an IC50 [3, 17] of over 90 µM. For the same compound, the IC50 [4, 17] was under 50 µM.
In the case of CCOP(=O)(OCC)C(C)NC(=O)N(CCF)N=O (centres unmarked), the IC50 ([1]; 120 hours) is reported as under 50 µM, the IC50 ([2]; 120 hours) is reported as over 90 µM and the IC50 ([3]; 120 hours) is reported as over 90 µM. It also gave an IC50 ([4]; 120 hours) of over 90 µM.
Work on Cc1ncc(CNC(=O)N(CCF)N=O)c(N)n1 yielded an IC50 ([1]; Homo sapiens, LN-229, 120 h) of under 50 µM, an IC50 [2, 17] of over 90 µM and an IC50 [3, 17] of over 90 µM. The IC50 [4, 17] was over 90 µM.
With CC(F)CN/N=N/c1[nH]cnc1C(N)=O (centres unmarked) [Compound 10] the “potency in MGMT-/MMR- cells” value (LN229 MGMT-/MMR- cells [5]) was “reduced potency”.
With NC(=O)c1nc[nH]c1/N=N/NCCCF [Compound 11] the “activity in the four LN229 cell lines” value ([6]; MGMT+/-, MMR+/-) was “low activity in all four cell lines”.
For Nc1nc(OCCF)c2ncn([C@@H]3O[C@H](CO)[C@@H](O)[C@H]3O)c2n1 [Compound S1, O^6-(2-fluoroethyl)guanosine], the half-life of hydrolysis [7] is given as 18.5 h and ~ 18.5 h.
In the case of Nc1nc(OCCCl)c2ncn([C@@H]3O[C@H](CO)[C@@H](O)[C@H]3O)c2n1 [Compound S4, O^6-(2-chloroethyl)guanosine], the half-life of hydrolysis [7] is listed as ~ 18 min.
For O=NN(CCCl)C(=O)NC1CCCCC1 [Lomustine, lomustine, reference compound], the “clonogenic survival, MGMT+ cells” value ([8]; LN229 MGMT+ cells) was “cytotoxic to MGMT+ cells” and the “clonogenic survival, MGMT- cells” value ([8]; LN229 MGMT- cells, MMR+/-) was “effective in MMR- cells”.
For CO[C@@]12[C@H](COC(N)=O)C3=C(C(=O)C(C)=C(N)C3=O)N1C[C@@H]1N[C@@H]12 [MMC, Mitomycin C], the “sensitivity of FANCD2-deficient cells” value [9] was “hypersensitivity to crosslinking agents in FANCD2-/-cells”, the “therapeutic index (TI)” value [10] was 7 fold and the “sensitivity of BRCA2-/- cells” value [10] was “hypersensitivity of PEO4 BRCA2-/-cells to crosslinking agents independent of MGMT depletion”. The “IR-induced comet tail (ICL detection)” value (LN229 MGMT-/MMR+ cells; 0.1 µM, 24 h) was “partial reduction in the IR-induced comet tail”, the “IR-induced comet tail (ICL detection)” value (LN229 MGMT-/MMR+ cells; 50 µM, 2 h) was “completely abolished the IR-induced comet tail” and the “comet tailing in the absence of IR” value (LN229 MGMT-/MMR+ cells; TMZ, KL-50 200 µM, MMC 0.1 or 50 µM) was “did not”. The “sensitivity of BRCA2-/- cells” value [11] was “hypersensitivity of DLD1 BRCA2-/- cells to crosslinking agents independent of MGMT depletion” and the “therapeutic index (TI), ratio of IC50 values in MGMT+/BRCA2+ cells compared to MGMT-/BRCA2- cells” value [11] was 26 fold.
In the case of COS(C)(=O)=O [MMS, Methylmethane sulfonate, reference compound], the DNA melting temperature [12] is reported as “comparable changes in measured DNA melting temperature”.
In the case of NC(=O)c1ncn2c(=O)n(CCCl)nnc12 [MTZ, mitozolomide, reference compound], the “selectivity for MGMT-deficient cells” value ([6]; LN229, listed as 12a) is reported as ~ 7 fold, the “DNA damage in unirradiated samples, time course” value (LN229 MGMT-/MMR- cells [13]; 0 Gy) is reported as “maximal damage at 2 h” and the “DNA mobility after IR, time course” value (LN229 MGMT-/MMR- cells [13]; 10 Gy) is reported as “reduced DNA mobility within 2 h”.
For Cn1nnc2c(C(N)=O)ncn2c1=O [TMZ, temozolomide, reference compound], the tumor growth ([14]; P.O.) was “no efficacy”, the “median OS” value ([14]; Kaplan-Meier) was 10 weeks and the “activity in HCT116 cells” value [15] was “inactive”. For the same compound, the “activity in DLD1 cells” value [16] was “inactive” and the IC50 (LN229 MGMT-/MMR- cells [5]; Homo sapiens, LN-229, read-out: IC50) was 838 µM.
With N.N.[Cl][Pt][Cl] [cisplatin] the “sensitivity of FANCD2-deficient cells” value [9] was “hypersensitivity to crosslinking agents in FANCD2-/-cells”, the “therapeutic index (TI)” value [10] was 13 fold and the “sensitivity of BRCA2-/- cells” value [10] was “hypersensitivity of PEO4 BRCA2-/-cells to crosslinking agents independent of MGMT depletion”. The “sensitivity of BRCA2-/- cells” value [11] was “hypersensitivity of DLD1 BRCA2-/- cells to crosslinking agents independent of MGMT depletion” and the “therapeutic index (TI), ratio of IC50 values in MGMT+/BRCA2+ cells compared to MGMT-/BRCA2- cells” value [11] was 42 fold.
